Laboratory results from publication PMC9469100, “Turning Nonselective Inhibitors of Type I Protein Arginine Methyltransferases into Potent and Selective Inhibitors of Protein Arginine Methyltransferase 4 through a Deconstruction–Reconstruction and Fragment-Growing Approach” (Journal of Medicinal Chemistry, 2022).
pIC50, pKd: −log10 of the molar value. Where two headings read alike, the source gives them in different places. Each block holds one compound with its values, some of them ahead of it.

Legend:
PRMT7 = target: T1, PRMT7 (Homo sapiens, UniProt Q9NVM4); assay: Radioisotope-based filter-binding (HotSpot) assay, PRMT7; conditions: for IC50: 5 μM GST-GAR, 1 μM 3H-SAM
T1 sequence (Q9NVM4 2-692): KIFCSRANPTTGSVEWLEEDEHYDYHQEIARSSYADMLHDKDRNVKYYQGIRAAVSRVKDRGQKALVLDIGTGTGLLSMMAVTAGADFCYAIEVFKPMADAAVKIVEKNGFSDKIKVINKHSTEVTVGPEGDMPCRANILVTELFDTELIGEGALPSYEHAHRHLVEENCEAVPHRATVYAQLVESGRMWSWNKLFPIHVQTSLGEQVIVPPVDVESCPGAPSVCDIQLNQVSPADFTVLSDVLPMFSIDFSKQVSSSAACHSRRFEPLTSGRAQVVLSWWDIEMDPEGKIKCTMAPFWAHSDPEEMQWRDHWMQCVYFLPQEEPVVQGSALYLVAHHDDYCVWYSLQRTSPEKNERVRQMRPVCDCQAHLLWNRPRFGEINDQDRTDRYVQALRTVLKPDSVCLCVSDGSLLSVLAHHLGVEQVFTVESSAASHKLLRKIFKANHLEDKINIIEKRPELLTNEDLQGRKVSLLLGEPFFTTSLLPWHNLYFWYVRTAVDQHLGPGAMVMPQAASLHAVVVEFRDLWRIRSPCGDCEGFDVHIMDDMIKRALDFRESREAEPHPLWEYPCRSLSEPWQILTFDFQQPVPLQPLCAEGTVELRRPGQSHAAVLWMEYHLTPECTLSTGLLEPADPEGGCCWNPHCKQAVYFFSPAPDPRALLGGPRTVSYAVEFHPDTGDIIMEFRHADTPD
Procedure: (§2) Then, ^3H-SAM (final concentration 1 μM) was delivered into the reaction mixture to initiate the reaction. After incubation for 60 min at 30 °C, the reaction mixture was delivered to filter paper for detection (as assessed by scintillation). Data were analyzed using Excel and GraphPad Prism 6.0 software (GraphPad Software Inc., San Diego, CA) for IC50 curve fits using sigmoidal dose vs response-variable slope (four parameters) equations.

PRMT6 = PRMT6 (Homo sapiens, UniProt Q96LA8); assay: Radioisotope-based filter-binding (HotSpot) assay, PRMT6; conditions: for IC50: read-out: IC50 (μM) PRMT6, radioisotope-based filter assay, 5 μM GST-GAR, 1 μM 3H-SAM
Sequence of PRMT6 (Q96LA8 2-375): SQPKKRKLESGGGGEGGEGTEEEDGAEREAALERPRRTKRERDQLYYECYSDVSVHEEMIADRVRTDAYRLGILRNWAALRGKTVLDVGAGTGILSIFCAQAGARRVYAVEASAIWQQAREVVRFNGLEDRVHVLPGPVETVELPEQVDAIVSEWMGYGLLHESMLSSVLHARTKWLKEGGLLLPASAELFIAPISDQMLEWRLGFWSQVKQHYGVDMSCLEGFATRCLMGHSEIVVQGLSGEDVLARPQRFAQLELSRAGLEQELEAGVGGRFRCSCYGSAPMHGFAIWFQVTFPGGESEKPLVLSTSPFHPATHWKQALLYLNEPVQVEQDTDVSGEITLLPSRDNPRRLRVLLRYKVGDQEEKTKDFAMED
Procedure: as §2

PRMT3 = PRMT3 (Homo sapiens, UniProt O60678); assay: Radioisotope-based filter-binding (HotSpot) assay, PRMT3; conditions: for IC50: 5 μM histone H4, 1 μM 3H-SAM
Sequence of PRMT3 (O60678 2-531): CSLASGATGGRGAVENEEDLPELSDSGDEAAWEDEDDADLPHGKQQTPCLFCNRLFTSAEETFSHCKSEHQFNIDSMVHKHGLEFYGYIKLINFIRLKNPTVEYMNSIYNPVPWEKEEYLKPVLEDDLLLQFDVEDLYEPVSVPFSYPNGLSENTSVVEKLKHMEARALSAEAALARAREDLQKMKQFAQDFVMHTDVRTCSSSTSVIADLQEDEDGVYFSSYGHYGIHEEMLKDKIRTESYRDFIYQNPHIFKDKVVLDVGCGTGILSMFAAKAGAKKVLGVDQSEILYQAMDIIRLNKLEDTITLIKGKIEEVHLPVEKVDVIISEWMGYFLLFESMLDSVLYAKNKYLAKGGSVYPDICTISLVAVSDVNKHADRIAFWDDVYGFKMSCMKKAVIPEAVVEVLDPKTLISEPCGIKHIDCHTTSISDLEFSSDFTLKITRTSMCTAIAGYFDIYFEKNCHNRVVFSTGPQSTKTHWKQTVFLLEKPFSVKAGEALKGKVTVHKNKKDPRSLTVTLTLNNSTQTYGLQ
Procedure: as §2

PRMT5/MEP50 complex = PRMT5/MEP50 complex (Homo sapiens, UniProt O14744); assay: Radioisotope-based filter-binding (HotSpot) assay, PRMT5; conditions: for IC50: read-out: IC50 (μM) PRMT5, radioisotope-based filter assay, 5 μM histone H2A, 1 μM 3H-SAM
Sequence of PRMT5/MEP50 complex (O14744 2-637): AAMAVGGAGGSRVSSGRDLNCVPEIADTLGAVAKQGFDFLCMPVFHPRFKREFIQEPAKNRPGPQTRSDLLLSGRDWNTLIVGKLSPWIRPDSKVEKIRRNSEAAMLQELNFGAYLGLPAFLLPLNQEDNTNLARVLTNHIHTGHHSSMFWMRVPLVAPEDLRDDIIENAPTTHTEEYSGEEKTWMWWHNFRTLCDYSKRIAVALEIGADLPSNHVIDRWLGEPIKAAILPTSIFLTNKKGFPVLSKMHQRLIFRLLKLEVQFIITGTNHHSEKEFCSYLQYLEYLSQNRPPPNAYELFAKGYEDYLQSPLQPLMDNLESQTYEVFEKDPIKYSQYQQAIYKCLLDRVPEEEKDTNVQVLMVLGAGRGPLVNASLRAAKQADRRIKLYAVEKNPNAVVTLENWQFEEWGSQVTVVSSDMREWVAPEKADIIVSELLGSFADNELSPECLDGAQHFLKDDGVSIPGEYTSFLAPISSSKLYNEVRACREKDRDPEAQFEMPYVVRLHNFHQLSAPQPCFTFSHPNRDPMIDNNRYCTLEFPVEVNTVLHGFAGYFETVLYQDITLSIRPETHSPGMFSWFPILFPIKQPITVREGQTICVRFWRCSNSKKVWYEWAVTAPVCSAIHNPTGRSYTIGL
Sequence of PRMT5/MEP50 complex (Q9BQA1 2-342 partner limits assumed): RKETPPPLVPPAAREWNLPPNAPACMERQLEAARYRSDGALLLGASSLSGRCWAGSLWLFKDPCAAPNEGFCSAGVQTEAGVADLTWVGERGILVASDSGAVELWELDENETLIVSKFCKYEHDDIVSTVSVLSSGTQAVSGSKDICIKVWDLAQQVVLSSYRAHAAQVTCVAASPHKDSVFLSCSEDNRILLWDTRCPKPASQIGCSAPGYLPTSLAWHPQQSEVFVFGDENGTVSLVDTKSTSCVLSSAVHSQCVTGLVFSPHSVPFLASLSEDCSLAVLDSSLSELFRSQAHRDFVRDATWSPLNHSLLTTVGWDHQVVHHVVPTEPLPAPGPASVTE
Procedure: as §2

ΔN(1–60)-PRMT8 = ΔN(1–60)-PRMT8 (Homo sapiens, UniProt Q9NR22); assay: Radioisotope-based filter-binding (HotSpot) assay, PRMT8
Sequence of ΔN(1–60)-PRMT8 (Q9NR22 61-394, stated change not applied): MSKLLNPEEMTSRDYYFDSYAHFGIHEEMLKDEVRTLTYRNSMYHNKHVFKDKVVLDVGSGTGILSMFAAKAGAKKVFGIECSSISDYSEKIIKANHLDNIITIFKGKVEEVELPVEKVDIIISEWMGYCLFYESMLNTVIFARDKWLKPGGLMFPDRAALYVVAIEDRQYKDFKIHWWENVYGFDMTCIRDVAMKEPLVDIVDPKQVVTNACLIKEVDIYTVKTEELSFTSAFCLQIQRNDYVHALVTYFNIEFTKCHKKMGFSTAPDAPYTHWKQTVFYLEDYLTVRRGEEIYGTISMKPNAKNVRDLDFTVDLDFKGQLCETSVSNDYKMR
Procedure: as §2

PRMT4 = target: T2, PRMT4 (Homo sapiens, UniProt Q86X55); assay: Radioisotope-based filter-binding (HotSpot) assay, PRMT4; conditions: for IC50: 5 μM histone H3, 1 μM 3H-SAM
T2 sequence (Q86X55 2-608): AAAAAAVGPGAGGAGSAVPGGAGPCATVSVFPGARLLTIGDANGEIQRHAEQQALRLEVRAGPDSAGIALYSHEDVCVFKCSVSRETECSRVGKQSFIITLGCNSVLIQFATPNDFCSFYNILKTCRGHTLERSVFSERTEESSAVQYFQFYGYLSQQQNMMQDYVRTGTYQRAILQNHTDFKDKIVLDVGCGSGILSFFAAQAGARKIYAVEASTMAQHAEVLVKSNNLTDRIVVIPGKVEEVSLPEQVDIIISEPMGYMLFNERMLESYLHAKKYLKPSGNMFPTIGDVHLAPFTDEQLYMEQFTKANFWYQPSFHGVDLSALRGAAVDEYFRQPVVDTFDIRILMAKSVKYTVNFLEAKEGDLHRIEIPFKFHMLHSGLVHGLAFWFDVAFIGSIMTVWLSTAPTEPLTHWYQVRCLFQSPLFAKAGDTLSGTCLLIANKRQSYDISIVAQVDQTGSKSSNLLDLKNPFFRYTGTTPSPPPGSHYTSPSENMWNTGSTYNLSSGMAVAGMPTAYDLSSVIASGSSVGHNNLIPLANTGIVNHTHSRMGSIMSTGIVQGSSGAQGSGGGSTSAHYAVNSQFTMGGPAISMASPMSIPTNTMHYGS
Procedure: as §2

[1] = target: T3, human PRMT4 (full length) (Homo sapiens, UniProt Q86X55); assay: SPR binding to immobilized PRMT4; conditions: for koff / kon: immobilized PRMT4; for kon: read-out: kon; for τR: in vitro residence time, τ = 1/koff
T3 construct: Full-length recombinant PRMT4 (Active motif, # 81107); purchased Active motif # 81107
T3 sequence (Q86X55 1-608): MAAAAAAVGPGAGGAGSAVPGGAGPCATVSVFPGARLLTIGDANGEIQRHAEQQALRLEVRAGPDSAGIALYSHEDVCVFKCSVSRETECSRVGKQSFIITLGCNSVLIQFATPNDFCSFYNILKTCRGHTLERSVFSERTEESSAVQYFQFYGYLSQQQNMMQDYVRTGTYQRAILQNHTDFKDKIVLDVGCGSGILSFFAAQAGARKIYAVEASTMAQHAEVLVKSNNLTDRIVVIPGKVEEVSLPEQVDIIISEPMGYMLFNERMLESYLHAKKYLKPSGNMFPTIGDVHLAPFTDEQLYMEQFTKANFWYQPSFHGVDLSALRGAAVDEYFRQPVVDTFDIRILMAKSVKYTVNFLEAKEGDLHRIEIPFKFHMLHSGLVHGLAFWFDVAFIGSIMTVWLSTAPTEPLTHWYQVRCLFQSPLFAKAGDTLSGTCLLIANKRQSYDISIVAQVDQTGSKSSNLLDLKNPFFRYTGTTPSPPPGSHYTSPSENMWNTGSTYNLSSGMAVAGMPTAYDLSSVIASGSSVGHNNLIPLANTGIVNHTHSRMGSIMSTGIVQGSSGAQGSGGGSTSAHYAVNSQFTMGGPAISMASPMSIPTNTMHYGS
Procedure: To this aim, human PRMT4 (full length) was covalently immobilized on a sensor chip surface using an amine-coupling approach, and the three compounds were injected at different concentrations over the protein surface. To reduce false positives from detergent-sensitive, nonspecific aggregation-based binding, detergents (0.05% Tween-20) were added to the running buffer in all experiments.
SPR experiments were performed on a Biacore T200 biosensor (Cytiva). PBS buffer (phosphate-buffered saline, pH 7.4) supplemented with 0.05% Tween-20 was used as the running buffer. […] One flow cell was left empty for background subtractions. […] Each compound was tested in […], prepared starting from 640 to 10 nM. Binding experiments were performed at 25 °C by using a flow rate of 30 μL/min, with 90 s monitoring of association and 90 s monitoring of dissociation. Regeneration of the surfaces was performed, when necessary, by a 10 s injection of 5 mM NaOH. […] The corrected sensorgrams for each compound were fitted simultaneously using a 1:1 Langmuir model to obtain equilibrium dissociation constants (KD) and kinetic dissociation (koff) and association (kon) constants.

ASH1L = target: T4, ASH1L (Homo sapiens, UniProt Q9NR48); assay: HotSpot KMT activity assay, ASH1L; type: biochemical
T4 construct: ASH1L (residues 2046–2330, with an N-terminal His-tag); His (N); purchased Reaction Biology Corporation
Procedure: (§1) Then, ^3H-SAM (final concentration 1 μM) was delivered into the reaction mixture to initiate the reaction. After incubation for 60 min at 30 °C, the reaction mixture was delivered to filter-paper for detection (as assessed by scintillation). […] No inhibitor control (DMSO) was considered as 100% enzyme activity. Data were analyzed using Excel and GraphPad Prism 6.0 software (GraphPad Software Inc., San Diego, CA). Values obtained for each compound are mean ± SD determined for two separate experiments.

[2] = Parallel artificial membrane permeability assay (PAMPA); type: in vitro ADME; conditions: phosphate buffer pH 7.4, donor 0.2 mM, 24 h at room temperature
Procedure: A donor solution (0.2 mM) was prepared by diluting 20 mM dimethyl sulfoxide (DMSO) compound stock solution using phosphate buffer (pH 7.4, 0.01 M). Filters were coated with 5 μL of a 1% (w/v) dodecane solution of L-α-phosphatidylcholine. Donor solution (150 μL) was added to each well of the filter plate. To each well of the acceptor plate, 300 μL of solution (5% DMSO in phosphate buffer) was added. […] The sandwich was incubated for 24 h at room temperature under gentle shaking. After the incubation time, the sandwich plates were separated, and 250 μL of the acceptor plate was transferred to a UV quartz microtiter plate and measured by UV spectroscopy, using a Multiskan GO microplate spectrophotometer (Thermo Fisher Scientific) at 250–500 nm at a step of 5 nm. Reference solutions (250 μL) were prepared diluting the sample stock solutions to the same concentration as that with no membrane barrier.

SETD8 = target: T5, SETD8 (Homo sapiens, UniProt Q9NQR1); assay: HotSpot KMT activity assay, SETD8; type: biochemical; conditions: 10-dose mode, 3-fold dilution starting at 100 µM; read-out: ref. cmpd. IC50 (µM), SETD8
T5 construct: SETD8 (residues 190–352, C-terminus); N-terminal His-tag; His (N); purchased Reaction Biology Corporation
T5 sequence (Q9NQR1 231-393): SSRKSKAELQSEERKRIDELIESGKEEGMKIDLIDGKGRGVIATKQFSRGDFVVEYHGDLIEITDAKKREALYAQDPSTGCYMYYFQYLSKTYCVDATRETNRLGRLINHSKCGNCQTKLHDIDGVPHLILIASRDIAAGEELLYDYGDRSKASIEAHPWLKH
Procedure: as §1

[3] = IC50 (μM) PRMT7, radioisotope-based filter assay
[4] = read-out: IC50 (μM) PRMT3, radioisotope-based filter assay
[5] = on increasing the linker between 4-hydroxy-2-naphthoate and guanidine (values equal the ratio to the IC50 of 12c)

SMILES: COC(=O)c1cc(O)c2cc(NC(=O)NCCCCNC(=N)NC[C@H]3O[C@@H](n4cnc5c(N)ncnc54)[C@H](O)[C@@H]3O)ccc2c1 [12b, Methyl 6-(3-(4-(3-(((2R,3S,4R,5R)-5-(6-Amino-9H-purin-9-yl)-3,4-dihydroxytetrahydrofuran-2-yl)methyl)guanidino)butyl)ureido)-4-hydroxy-2-naphthoate]
IC50 (PRMT4; read-out: IC50 (μM) PRMT4, radioisotope-based filter assay): 2.14 µM | pIC50 (PRMT4; read-out: IC50 PRMT4 (Figure 5 heatmap), radioisotope-based filter assay): 5.67 | IC50 (PRMT7; read-out: IC50 (μM) PRMT7, radioisotope-based filter assay): 0.55 µM | IC50 (PRMT6): > 100 µM | IC50 (PRMT3; [4]): 43.4 µM | IC50 (PRMT5/MEP50 complex): 76.7 µM | IC50 (ΔN(1–60)-PRMT8; read-out: IC50 (μM) PRMT8, 5 μM histone H4, 1 μM 3H-SAM): 18.7 µM | koff ([1]; SPR): 0.015 s⁻¹ | pKd ([1]; SPR, immobilized PRMT4, 25 °C, KD from ratio koff/kon): 5.64 | kon ([1]; SPR): 6520 M⁻¹ s⁻¹ | τR [1]: 66.7 s

SMILES: COC(=O)c1cc(O)c2cc(NC(=O)NCCCCCCNC(=N)NC[C@H]3O[C@@H](n4cnc5c(N)ncnc54)[C@H](O)[C@@H]3O)ccc2c1 [12d, Methyl 6-(3-(6-(3-(((2R,3S,4R,5R)-5-(6-Amino-9H-purin-9-yl)-3,4-dihydroxytetrahydrofuran-2-yl)methyl)guanidino)hexyl)ureido)-4-hydroxy-2-naphthoate]
IC50 (PRMT4; IC50 (μM) PRMT4, radioisotope-based filter assay): 0.068 µM | pIC50 (PRMT4; IC50 PRMT4 (Figure 5 heatmap), radioisotope-based filter assay): 7.21 | gain in the inhibitory activity against PRMT4 (PRMT4; [5]): 6.2 fold | IC50 (PRMT7; [3]): 0.41 µM | pIC50 (PRMT7; IC50 PRMT7 (Figure 5 heatmap), radioisotope-based filter assay): 6.38 | pIC50 (PRMT6): 4.33 | IC50 (PRMT3; IC50 (μM) PRMT3, radioisotope-based filter assay): 12.2 µM | pIC50 (PRMT3; IC50 PRMT3 (Figure 5 heatmap), radioisotope-based filter assay): 4.92 | pIC50 (PRMT5/MEP50 complex): 5.59 | gain in the inhibitory activity against PRMT5 (PRMT5/MEP50 complex; [5]): 19.8 fold | pKd [1]: 5.55 | koff ([1]; SPR): 0.76 s⁻¹ | kon ([1]; SPR): 270000 M⁻¹ s⁻¹ | τR [1]: 1.31 s

SMILES: CN1C(=O)[C@@]23C[C@]4([C@]56C[C@@]78SS[C@@](CO)(C(=O)N7[C@H]5Nc5ccccc56)N(C)C8=O)c5ccccc5N[C@@H]4N2C(=O)[C@]1(CO)SS3 [chaet, chaetocin, reference compound]
pIC50 (ASH1L): 6.85

SMILES: Cc1ccc(NC2=CC(=O)c3sc(C)nc3C2=O)cc1 [ryuv, ryuvidine, reference compound]
IC50 (SETD8): 0.186 µM

Next, values leading:

IC50 (PRMT7; [3]): 0.3 µM | pIC50 (PRMT7; read-out: IC50 PRMT7 (Figure 5 heatmap), radioisotope-based filter assay): 6.50 | IC50 (PRMT6): 72.8 µM | IC50 (PRMT3; [4]): 57.2 µM | IC50 (PRMT5/MEP50 complex): 52.1 µM | pIC50 (ΔN(1–60)-PRMT8; read-out: IC50 PRMT8 (Figure 5 heatmap)): 5.08
SMILES: COC(=O)c1cc(O)c2cc(NC(=O)NCCCNC(=N)NC[C@H]3O[C@@H](n4cnc5c(N)ncnc54)[C@H](O)[C@@H]3O)ccc2c1 [12a, Methyl 6-(3-(3-(3-(((2R,3S,4R,5R)-5-(6-Amino-9H-purin-9-yl)-3,4-dihydroxytetrahydrofuran-2-yl)methyl)guanidino)propyl)ureido)-4-hydroxy-2-naphthoate]

Papp at 24 h, 0.2 mM [2]: 60 nm/s
SMILES: CC(C)NCC(O)COc1cccc2ccccc12 (stereo not shown) [propranolol, reference compound]
